This passage reports IC50 results from patent US20230357179A1, “RAF KINASE INHIBITORS AND METHODS OF USE THEREOF” (Deciphera Pharmaceuticals, LLC, priority 2021, published 2023).

Usually IC50 stands for the point on the concentration scale where inhibition reaches its midpoint.

Format in all cases: cell-based
Experiment [1] deals with A375 cells. Description: A375 cell proliferation assay (1), resazurin, 96-well. To be noted: Homo sapiens, A-375, inhibition of cell proliferation. The gist of the method:
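Viability was read by resazurin fluorescence at 540 nm excitation and 600 nm emission, using a 440 μM solution added for 5–6 h at the end of culture. IC50 came from the curve fit.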
For orientation: Alamar Blue is a resazurin reagent that responds to reducing activity.

The next experiment relates to WM3928 cells. Description: WM3928 cell proliferation assay (1), resazurin, 96-well. To be noted: inhibition of cell proliferation. The method, boiled down:
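IC50 was derived from resazurin fluorescence (ex 540, em 600 nm) after a 6–7 h dye incubation. Before that, cells had 67–72 h of compound exposure at 37 °C, 5% CO2.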

In the next experiment the test system is H2405 cells. Description: H2405 cell proliferation assay (1), resazurin, 96-well. To be noted: Homo sapiens, NCI-H2405, inhibition of cell proliferation. The method, boiled down:
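This is a resazurin viability readout (excitation 540 nm, emission 600 nm) taken 5-6 h after adding 440 μM resazurin solution, giving IC50 values.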

The subject of experiment [2] is A375 cells. Description: A375 cell proliferation assay (2), resazurin, 384-well. Conditions: Homo sapiens, A-375, inhibition of cell proliferation, 67-72 h. The protocol: A375 Cell Proliferation Assay (2)
A375 cells (catalog (#CRL-1619) are obtained from the American Type Culture Collect (ATTC, Manassas, VA). Briefly, cells were grown in DMEM High Glucose supplemented with 10% characterized fetal bovine serum (Invitrogen, Carlsbad, CA) and 1% Penicillin/Streptomycin/L-Glutamine at 37° C., 5% CO2, and 95% humidity. Cells are expanded until reaching 70-95% confluency at which point they are sub-cultured or harvested for assay use. Using the Beckman Coulter Echo 650, a serial dilution of test compound is dispensed into a 384-well black clear bottom plate in triplicate. Six hundred twenty-five cells are added per well in 50 μL complete growth medium in the 384-well plate. Plates are incubated for 67-72 h at 37° C., 5% CO2, and 95% humidity. At the end of the incubation, 10 μL of a 440 μM solution of resazurin (Sigma, St. Louis, MO) in PBS is added to each well of the plate and plates are incubated for an additional 3-6 h at 37° C., 5% CO2, and 95% humidity. Plates are read on a Synergy2 or equivalent reader (Biotek, Winooski VT) using an excitation of 540 nm and an emission of 600 nm. Data is analyzed using Prism software (GraphPad, San Diego, CA) to calculate IC50 values.

Turning to `CNC(=O)c1cc(-c2cc(-c3cc(NC(=O)N4CC[C@H](C(F)(F)F)C4)ccc3C)ccn2)ccn1` [Example 215], the IC50 in the experiment with A375 cells [1] is 1 to 10 µM; in the experiment on WM3928 cells it was 0.5 to 1 µM.
Take `Cc1cc(F)c(NC(=O)N2CCC(C)(C#N)CC2)cc1-c1cc(OCCO)nc(-c2ccnc3[nH]ncc23)c1` [Example 92]: the IC50 in the experiment with A375 cells [1], in the experiment on H2405 cells and in the experiment with WM3928 cells was 1 to 10 µM throughout.
Turning to `Cc1cc(F)c(NC(=O)NCCC2(C)CC2)cc1-c1cc(OCCO)nc(-c2ccnc3[nH]ncc23)c1` [Example 87], the concentration for half-maximal inhibition (IC50) with A375 cells [1] is 0.1 to 0.5 µM; in the experiment on H2405 cells it was 0.1 to 0.5 µM; in the experiment with WM3928 cells, at most 0.1 µM.
Regarding `COC(=O)Nc1cc(-c2cncc(-c3cc(NC(=O)N4CC[C@H](C(F)(F)F)C4)ccc3C)c2)ncn1` [Example 224], the IC50 in the experiment with A375 cells [1], in the experiment with H2405 cells and with WM3928 cells was 0.1 to 0.5 µM throughout.
For `Cc1cc(F)c(NC(=O)NCC[C@@H]2CCO2)cc1-c1cc(OCCO)nc(-c2ccnc3[nH]ncc23)c1` [Example 89], the IC50 in the experiment with A375 cells [1], in the experiment with H2405 cells and in the experiment with WM3928 cells was 1 to 10 µM in each case.
As for `CNC(=O)c1cc(-c2cncc(-c3cc(NC(=O)N4CC[C@H](C(F)(F)F)C4)ccc3C)c2)ccn1` [Example 228], the IC50 in the experiment on A375 cells [2] is 1 to 10 µM.
With `CNC(=O)c1cc(-c2cc(-c3cc(NC(=O)N4CC[C@H](C(C)C)C4)ccc3C)ccn2)ccn1` [Example 225], the half-inhibitory concentration (IC50) in the experiment with A375 cells [2] and in the experiment with H2405 cells was 0.1 to 0.5 µM throughout.
For `CNC(=O)c1cc(-c2cncc(-c3cc(NC(=O)N4CC[C@H](C(F)(F)F)C4)ccc3C)c2)ncn1` [Example 220], the half-maximal inhibitory concentration (IC50) with A375 cells [2] lay in the range of 1 to 10 µM; in the experiment with H2405 cells, 0.5 to 1 µM.
As to `Cc1cc(F)c(NC(=O)N[C@@H]2CC[C@H](F)C2)cc1-c1cc(OCCO)nc(-c2ccnc3[nH]ncc23)c1` [Example 88], the IC50 in the experiment with A375 cells [1], in the experiment with H2405 cells and in the experiment on WM3928 cells was 1 to 10 µM in each case.
For `CNC(=O)c1cc(-c2cncc(-c3cc(NC(=O)N4CC[C@H](C(C)C)C4)ccc3C)c2)ncn1` [Example 226], the IC50 in the experiment on A375 cells [2] and in the experiment on H2405 cells was 0.5 to 1 µM throughout.
`Cc1ccc(NC(=O)N2CC[C@H](C)C2)cc1-c1cncc(-c2cc(NC(=O)C3CC3)ncn2)c1` [Example 227]: the 50% inhibitory concentration (IC50) in the experiment with A375 cells [2] fell in the range of 1 to 10 µM.
Turning to `COC(C)(C)CCNC(=O)Nc1cc(-c2cc(OCCO)nc(-c3ccnc4[nH]ccc34)c2)c(C)cc1F` [Example 90], the results for the IC50 with A375 cells [1], in the experiment with H2405 cells and in the experiment with WM3928 cells were 1 to 10 µM, 0.5 to 1 µM and 0.5 to 1 µM, respectively.
As for `CNC(=O)c1cc(-c2cncc(-c3cc(NC(=O)N4CC[C@H](C(C)C)C4)ccc3C)c2)ccn1` [Example 229], in the experiment on A375 cells [2], the concentration for half-maximal inhibition (IC50) lay in the range of 0.1 to 0.5 µM.
Turning to `COC(=O)Nc1cc(-c2cccc(-c3cc(NC(=O)NCCC(C)(C)OC)c(F)cc3C)c2)ccn1` [Example 85], the half-maximal inhibitory concentration (IC50) in the experiment on A375 cells [1], in the experiment on H2405 cells and in the experiment with WM3928 cells was 0.1 to 0.5 µM each time.
As for `COC(C)(C)CCNC(=O)Nc1cc(-c2cc(OCCO)nc(-c3ccnc4[nH]ncc34)c2)c(C)cc1F` [Example 91], the values for the IC50 in the experiment with A375 cells [1], in the experiment on H2405 cells and in the experiment on WM3928 cells were 0.5 to 1 µM, 0.1 to 0.5 µM and 0.1 to 0.5 µM, respectively.
